Test results published in patent EP1370663B1, “MICROBIOLOGICAL METHOD FOR PRODUCING L-CARNITINE” (priority 2001, dated 2002).

Assays:
Stamm HK4 (DSM 2938) = assay: Growth of strain HK4 on butyrobetaine esters or butyrobetaine as sole C source; type: cell-based, Agrobacterium/Rhizobium HK4 (DSM 2938); details: 30°C, 140 upm, 48 to 96 h
Procedure: Der Stamm HK4 (DSM 2938) wurde auf Minimalmedium Agarplatten unter Zusatz von 0,4% (w/v) Betain als einziger C-Quelle nach Einzelkolonie-Ausstrich bei 30°C für 48 bis 72 h inkubiert. Zur Anzucht wurden Einzelkolonien des Stammes von der Agarplatte in das Minimalmedium enthaltend Butyrobetain-methylester (BBMe) und Butyrobetain-ethylester (BBEt) als jeweils einziger C-Quelle überimpft und bei 30°C und 140 upm für 48 bis 96 h inkubiert. Es wurde ein Kontrollversuch durchgeführt, bei dem die Anzucht des Stammes HK4 (DSM 2938) unter den gleichen Bedingungen, jedoch unter Zusatz von Butyrobetain anstelle eines Butyrobetain-esters als einziger C-Quelle, erfolgte.

[1] = Control: storage of butyrobetaine esters in the medium without cells (hydrolytic stability); type: physicochemical; details: same medium and conditions as Example 2 (30°C, 74 h) but without cells
Procedure: Die Stämme HK13 (DSM 2903) und HK1349 (DSM 3944) wurden jeweils in "Nutrient Yeast broth" Vorkulturmedium (10 mL), welchem L-Carnitin (0,05% (w/v)) als Induktor des L-Carnitinstoffwechsels zugesetzt wurde, überimpft und 2 Tage bei 30°C und 140 upm inkubiert. Die Vorkulturen (0,01 mL) wurde in das Minimalmedium (10 mL), welches zusätzlich 0,02% (w/v) Betain, 0,05% (v/v) Glycerin, 0,50% (w/v) L-Glutamat und entweder 0,75% (w/v) Butyrobetain-methylester (BBMe) oder 0,75% (w/v) Butyrobetain-ethylester (BBEt) enthielt, überimpft und bei 30°C und 140 upm inkubiert. Nach 40 h betrug die OD650 von beiden Kulturen ca. 9,0 und die Kulturen befanden sich in der stationären Phase. Nach weiteren 34 h wurden Proben entnommen. Die Zellen wurden zentrifugiert (11 000 upm, 5 min) und der Überstand wurde mittels HPLC auf den Gehalt an Butyrobetain, L-Carnitin und nicht umgesetzten Butyrobetain-ester untersucht. Die Ergebnisse sind in Tabelle 2 zusammengefasst. Als Kontrollversuch wurden Butyrobetain-methylester (BBMe) und Butyrobetain-ethylester (BBEt) jeweils im gleichen Medium und unter den gleichen Bedingungen, jedoch ohne Zusatz von Zellen, gelagert. […]

[2] = system: Hydrolasen im Zellextrakt des Stammes HK1349 (DSM 3944); assay: Hydrolase activity of HK1349 supernatant after cell disruption and treatment with detergents (4-nitrophenyl acetate assay); type: biochemical, Agrobacterium/Rhizobium HK1349 (DSM 3944); details: supernatant after cell disruption and treatment with 5% (v/v) detergent, 30 min, 25°C; 100% = 0,30 U/mg Protein
Procedure: Die Bestimmung der Hydrolase-Aktivität erfolgte photometrisch mittels Essigsäue-4-nitrophenylester-Assay. Hierzu wurde die Proteinlösung (900 µL) mit einer Lösung von Essigsäure-4-nitrophenylester (10 mM in Dimethylsulfoxid; 100 µL) bei 25°C versetzt. Die Absorption des während der Hydrolyse gebildeten 4-Nitrophenols (e = 15 × 10^3 × M^-1 cm^-1) wurde bei 410 nm gemessen. 1 Unit (U) entspricht der Menge 4-Nitrophenol (in µmol), die pro Minute freigesetzt wird. Die Bestimmung des Proteingehaltes der eingesetzten Proteinlösung erfolgte mit dem BCA (Bicin choninic acid) Protein Assay kit (Pierce) nach Anleitung des Herstellers. Die spezifische Hydrolase-Aktivität wird angegeben in U/mg Protein und entspricht der Menge 4-Nitrophenol (in µmol), die pro Minute und mg Protein freigesetzt wird.
Die gemäss Beispiel 4.1. erhaltene Zellsuspension (HK1349 (DSM 3944), OD650 nm 37, 50 mM Natriumphosphat-Puffer, pH 7,5) wurde durch 10 minütige Behandlung mit Ultraschall unter Eisbadkühlung aufgeschlossen, mit verschiedenen Detergentien (5% (v/v) Detergenz; 30 min; 25°C) inkubiert und die Zelltrümmer wurden abzentrifugiert (4 000 upm; 10 min; 4°C). Die spezifische Hydrolase-Aktivität der Überstände wurde mittels Essigsäure-4-nitrophenylester-Assay bestimmt. Die höchste spezifische Hydrolase-Aktivität (0,30 U/mg Protein) wurde als 100%-Wert betrachtet. Die Ergebnisse sind in Tabelle 4 zusammengestellt. Die höchste spezifische Hydrolase-Aktivität wurde unter Verwendung von Triton X-114 beobachtet.

[3] = system: Hydrolasen im Zellextrakt des Stammes HK1349 (DSM 3944); assay: Substrate specificity of the hydrolases of HK1349 (pH-stat titration); type: biochemical, Agrobacterium/Rhizobium HK1349 (DSM 3944); details: 5% (v/v) ester emulsion, 37°C; for Spezifische Hydrolase-Aktivität [U/mg Protein]: lyophilised Triton X-114 supernatant of HK1349; for Relative spezifische Hydrolase-Aktivität [%]: 100% = 0,039 U/mg Protein
Procedure: Die gemäss Beispiel 4.1. erhaltene Zellsuspension (HK1349 (DSM 3944), OD650 nm 37, 50 mM Natriumphosphat-Puffer, pH 7,5) wurde durch 10 minütige Behandlung mit Ultraschall unter Eisbadkühlung aufgeschlossen, mit Triton X-114 (5% (v/v); 30 min; 25°C) inkubiert und dann zentrifugiert (4 000 upm; 10 min; 4°C). Der Überstand wurde lyophilisiert. Der lyophilisierte Überstand (100 mg) wurde in Natriumphosphatpuffer (50 mM; pH 7,5; 1,0 mL) gelöst und zu Emulsionen von Essigsäure-ethylester, Buttersäure-ethylester und Buttersäure-methylester (5% (v/v) Ester emulgiert mittels eines Ultraturrax in destilliertem Wasser enthaltend 2% (w/v) Gummi arabicum; 20 mL) bei 37°C gegeben. Die bei der Hydrolyse des Esters freigesetzte Säure wird mit NaOH (0,01 M) unter Verwendung eines pH-Stats titriert. 1 U (Unit) entspricht der Menge an Säure (in µmol), die pro Minute freigesetzt wird. Die höchste spezifische Hydrolase-Aktivität (0,039 U/mg Protein) wurde als 100%-Wert betrachtet. Die Ergebnisse sind in Tabelle 5 zusammengestellt.

[4] = 1,0 % (w/v) as sole C source in minimal medium

Molecule	Wachstum [OD650] (Stamm HK4 (DSM 2938); [4])	Relative spezifische Hydrolase-Aktivität [%] [2] [%]	Spezifische Hydrolase-Aktivität [U/mg Protein] [3]	Relative spezifische Hydrolase-Aktivität [%] [3] [%]	other results
CCOC(=O)CCC[N+](C)(C)C [BBEt, Butyrobetain-ethylester]	0,76 OD650				Wachstum [OD650] (Stamm HK4 (DSM 2938); 0,2 % (w/v) as sole C source in minimal medium): 0,23 OD650; Hydrolyse der Butyrobetain-ester zu Butyrobetain [1]: keine Hydrolyse
Triton X-100		64			
CCCC(=O)OC [Buttersäure-Methylester]			0,038 U/mg Protein	97	
CCCCCCCC/C=C\CCCCCCCC(=O)OCCOCC(OCCO)C1OCC(OCCO)C1OCCO (stereo not drawn) [Tween 80]		80			
C[N+](C)(C)CCCC(=O)[O-] [Butyrobetain]	7,0 OD650				
COC(=O)CCC[N+](C)(C)C [BBMe, Butyrobetain-methylester]	0,76 OD650				Hydrolyse der Butyrobetain-ester zu Butyrobetain [1]: keine Hydrolyse
CCCCCCCCCCCCOS(=O)(=O)O [SDS]		26			
CCCC(=O)OCC [Buttersäure-Ethylester]			0,028 U/mg Protein	72	
CCOC(C)=O [Essigsäure-Ethylester]			0,039 U/mg Protein	100	
